# Test results reported in article PMC11859092 (Pharmaceutics, 2025).
# What was measured:
# [1] = In vitro cytotoxicity test (MTT); format: cell-based
# Method: Thereafter, cell viability was determined by the 3-(4,5-dimethylthiazol-2-yl)-2,5-diphenyl tetrazolium bromide (MTT, Sigma-Aldrich, St. Louis, MO, USA) method at a final concentration 0.5 mg/mL. After 2 h of incubation at 37 °C, the supernatants were removed, ethanol was added to each well to solubilize the formazan crystals and absorbance was measured in a multi-mode microplate reader (FLUOstar® Omega, Labtech, Eschelbronn, Germany) at 595 nm. […] All determinations were performed in triplicate.
# [2] = tested on: DENV-2; experiment: microbe, parasite or virus in culture; format: cell-based, DENV type-2 (DENV-2) strain NGC; conditions: Dengue virus
# [3] = tested on: ZIKV; experiment: Virus yield inhibition assay (PFU); format: cell-based, ZIKV INEVH-116141 strain; conditions: Zika virus, m.o.i. 0.1, 48 h p.i.
# [4] = tested on: YFV; experiment: microbe, parasite or virus in culture; format: cell-based, YFV vaccine strain YF-17D; conditions: Yellow fever virus
# [5] = cited from earlier work
# [6] = cited from earlier work; remark: listed apart in the source
# [7] = EFV solubilization in Soluplus nanomicelle dispersions (apparent aqueous solubility, RP-HPLC); conditions: distilled water, 25 °C
structure (smiles),measurement,setting,value
"O=C1Nc2ccc(Cl)cc2[C@@](C#CC2CC2)(C(F)(F)F)O1 [EFV, Efavirenz]",CC50 at 48 h,"[1]; African green monkey, Vero",56.8 µg/mL
same,CC50 at 48 h,"[1]; human, A549, 48 h",126 µg/mL
same,EC50,"[2]; DENV2, A549, 48 h",2.69 µg/mL
same,EC50,"[2]; DENV2, Vero, 48 h",8.17 µg/mL
same,EC50,[3]; ZIKV in A549 cells,4.98 µg/mL
same,EC50,[3]; ZIKV in Vero cells,2.41 µg/mL
same,EC50,"[4]; A549, 48 h",12.6 µg/mL
same,EC50,"[4]; Vero, 48 h",1.48 µg/mL
same,biopharmaceutical classification system (BCS) class,[5],class II
same,intrinsic aqueous solubility,[5],4 µg/mL
same,Cmax in humans,[6],4000 ng/mL
same,PM molar partition coefficient (micelle/water),[7]; Soluplus 1% w/v,5368
same,P partition coefficient (micelle/water),[7]; Soluplus 3% w/v,1327
same,PM molar partition coefficient (micelle/water),[7]; Soluplus 3% w/v,5220
same,P partition coefficient (micelle/water),[7]; Soluplus 5% w/v,2247
same,PM molar partition coefficient (micelle/water),[7]; Soluplus 5% w/v,5303
same,P partition coefficient (micelle/water),[7]; Soluplus 7% w/v,3667
same,PM molar partition coefficient (micelle/water),[7]; Soluplus 7% w/v,6181
same,P partition coefficient (micelle/water),[7]; Soluplus 10% w/v,4802
same,PM molar partition coefficient (micelle/water),[7]; Soluplus 10% w/v,5666
